Measured values published in ChEMBL document CHEMBL3885881, “DrugMatrix”.

Organism: Rattus norvegicus
Test: DrugMatrix - Regimen: Daily Repeat
Type: toxicity, organism-based, Sprague-Dawley
Parameters: regimen Daily Repeat, gender Male, age 6-8 weeks
Details: in vivo, iv, vehicle 100 % SALINE; for ABSOLUTE BASOPHIL / ABSOLUTE EOSINOPHIL / ABSOLUTE LYMPHOCYTE / ABSOLUTE MONOCYTE / ABSOLUTE SEGMENTED NEUTROPHIL / BASOPHIL / EOSINOPHIL / ERYTHROCYTE COUNT / HEMATOCRIT / HEMOGLOBIN / LEUKOCYTE COUNT / LYMPHOCYTE / MEAN CORPUSCULAR HEMOGLOBIN / MEAN CORPUSCULAR HEMOGLOBIN CONCENTRATION / MEAN CORPUSCULAR VOLUME / MONOCYTE / NEUTROPHIL / NUCLEATED RED BLOOD CELLS / PLATELET COUNT: tissue Blood; for ALANINE AMINOTRANSFERASE / ALBUMIN / ALKALINE PHOSPHATASE / ASPARTATE AMINOTRANSFERASE / BLOOD UREA NITROGEN / CARBON DIOXIDE / CHLORIDE / CHOLESTEROL / CREATINE PHOSPHOKINASE / CREATININE / GLUCOSE / LACTATE DEHYDROGENASE / LIPASE / PHOSPHORUS / POTASSIUM / SODIUM / TOTAL BILIRUBIN / TOTAL PROTEIN / URIC ACID: tissue Plasma
[1] = 0.08 mg/kg, 120 h, dose level Low, time 5 day
[2] = 0.3 mg/kg, 72 h, dose level High, time 3 day
[3] = 0.3 mg/kg, 120 h, dose level High, time 5 day

With `CC[C@]1(O)C[C@@H]2CN(CCc3c([nH]c4ccccc34)[C@@](C(=O)OC)(c3cc4c(cc3OC)N(C)[C@H]3[C@@](O)(C(=O)OC)[C@H](OC(C)=O)[C@]5(CC)C=CCN6CC[C@]43[C@@H]65)C2)C1` [VINBLASTINE] as the compound, how does the “ABSOLUTE BASOPHIL” value [1] read?
Its value is 0 CELLS/uL.

What about the “ABSOLUTE EOSINOPHIL” value [1] of the same compound?
The value was 0 CELLS/uL.

And the “ABSOLUTE LYMPHOCYTE” value [1]?
The value was 7180.33 CELLS/uL.

And the “ABSOLUTE MONOCYTE” value [1]?
Its value is 26.33 CELLS/uL.

And the “ABSOLUTE SEGMENTED NEUTROPHIL” value [1]?
Its value is 293.33 CELLS/uL.

And the BASOPHIL [1]?
The BASOPHIL was 0%.

And the EOSINOPHIL [1]?
The EOSINOPHIL was 0%.

What about the “ERYTHROCYTE COUNT” value [1] of the same compound?
Its value is 5.15 x10E6/uL.

What about the HEMATOCRIT [1] of the same compound?
Its HEMATOCRIT is 32.43%.

And the HEMOGLOBIN [1]?
Its HEMOGLOBIN is 13 G/DL.

What about the “LEUKOCYTE COUNT” value [1] of the same compound?
The value was 7.5 x10E3/uL.

What about the LYMPHOCYTE [1] of the same compound?
Its LYMPHOCYTE is 95.67%.

And the “MEAN CORPUSCULAR HEMOGLOBIN” value [1]?
Its value is 25.27 pg.

What about the “MEAN CORPUSCULAR HEMOGLOBIN CONCENTRATION” value [1] of the same compound?
Its value is 40.07 G/DL.

And the “MEAN CORPUSCULAR VOLUME” value [1]?
Its value is 63.1 fL.

What about the MONOCYTE [1] of the same compound?
The MONOCYTE was 0.33%.

What about the NEUTROPHIL [1] of the same compound?
The NEUTROPHIL was 4%.

And the “NUCLEATED RED BLOOD CELLS” value [1]?
Its value is 0 /100WBC.

And the “PLATELET COUNT” value [1]?
The value was 1437 x10E3/uL.

And the “ALANINE AMINOTRANSFERASE” value [1]?
Its value is 44 u/L.

What about the ALBUMIN [1] of the same compound?
Its ALBUMIN is 3.93 G/DL.

And the “ALKALINE PHOSPHATASE” value [1]?
The value was 340.67 u/L.

What about the “ASPARTATE AMINOTRANSFERASE” value [1] of the same compound?
The value was 88.67 u/L.

What about the “BLOOD UREA NITROGEN” value [1] of the same compound?
The value was 16.67 mg/dL.

And the “CARBON DIOXIDE” value [1]?
The value was 28 mmol/L.

And the CHLORIDE [1]?
Its CHLORIDE is 101.33 MEQ/L.

What about the CHOLESTEROL [1] of the same compound?
The CHOLESTEROL was 69.67 mg/dL.

What about the “CREATINE PHOSPHOKINASE” value [1] of the same compound?
Its value is 599 u/L.

And the CREATININE [1]?
The CREATININE was 0.2 mg/dL.

And the GLUCOSE [1]?
The GLUCOSE was 212 mg/dL.

What about the “LACTATE DEHYDROGENASE” value [1] of the same compound?
The value was 334.67 u/L.

What about the LIPASE [1] of the same compound?
Its LIPASE is 10.67 u/L.

What about the PHOSPHORUS [1] of the same compound?
Its PHOSPHORUS is 13.3 mg/dL.

And the POTASSIUM [1]?
The POTASSIUM was 5.71 MEQ/L.

And the SODIUM [1]?
The SODIUM was 141.27 MEQ/L.

What about the “TOTAL BILIRUBIN” value [1] of the same compound?
The value was 0.2 mg/dL.

What about the “TOTAL PROTEIN” value [1] of the same compound?
Its value is 5.83 G/DL.

What about the “URIC ACID” value [1] of the same compound?
The value was 1.77 mg/dL.

And the “ABSOLUTE BASOPHIL” value [2]?
The value was 0 CELLS/uL.

And the “ABSOLUTE EOSINOPHIL” value [2]?
The value was 0 CELLS/uL.

And the “ABSOLUTE LYMPHOCYTE” value [2]?
Its value is 5650.33 CELLS/uL.

And the “ABSOLUTE MONOCYTE” value [2]?
The value was 34.67 CELLS/uL.

What about the “ABSOLUTE SEGMENTED NEUTROPHIL” value [2] of the same compound?
The value was 381.67 CELLS/uL.

And the BASOPHIL [2]?
Its BASOPHIL is 0%.

What about the EOSINOPHIL [2] of the same compound?
The EOSINOPHIL was 0%.

And the “ERYTHROCYTE COUNT” value [2]?
Its value is 4.96 x10E6/uL.

And the HEMATOCRIT [2]?
The HEMATOCRIT was 31.5%.

What about the HEMOGLOBIN [2] of the same compound?
Its HEMOGLOBIN is 12.67 G/DL.

And the “LEUKOCYTE COUNT” value [2]?
The value was 6.07 x10E3/uL.

What about the LYMPHOCYTE [2] of the same compound?
The LYMPHOCYTE was 93%.

What about the “MEAN CORPUSCULAR HEMOGLOBIN” value [2] of the same compound?
Its value is 25.5 pg.

And the “MEAN CORPUSCULAR HEMOGLOBIN CONCENTRATION” value [2]?
The value was 40.23 G/DL.

And the “MEAN CORPUSCULAR VOLUME” value [2]?
The value was 63.4 fL.

What about the MONOCYTE [2] of the same compound?
Its MONOCYTE is 0.67%.

What about the NEUTROPHIL [2] of the same compound?
Its NEUTROPHIL is 6.33%.

What about the “NUCLEATED RED BLOOD CELLS” value [2] of the same compound?
The value was 0 /100WBC.

And the “PLATELET COUNT” value [2]?
The value was 588.33 x10E3/uL.

What about the “ALANINE AMINOTRANSFERASE” value [2] of the same compound?
The value was 129 u/L.

And the ALBUMIN [2]?
The ALBUMIN was 4.03 G/DL.

And the “ALKALINE PHOSPHATASE” value [2]?
Its value is 429 u/L.

What about the “ASPARTATE AMINOTRANSFERASE” value [2] of the same compound?
The value was 337.67 u/L.

What about the “BLOOD UREA NITROGEN” value [2] of the same compound?
The value was 15 mg/dL.

And the “CARBON DIOXIDE” value [2]?
The value was 31 mmol/L.

And the CHLORIDE [2]?
The CHLORIDE was 102 MEQ/L.

And the CHOLESTEROL [2]?
Its CHOLESTEROL is 104 mg/dL.

And the “CREATINE PHOSPHOKINASE” value [2]?
The value was 645 u/L.

And the CREATININE [2]?
The CREATININE was 0.16 mg/dL.

What about the GLUCOSE [2] of the same compound?
The GLUCOSE was 167.33 mg/dL.

And the “LACTATE DEHYDROGENASE” value [2]?
The value was 246.33 u/L.

And the LIPASE [2]?
The LIPASE was 10.67 u/L.

What about the PHOSPHORUS [2] of the same compound?
The PHOSPHORUS was 11.6 mg/dL.

And the POTASSIUM [2]?
The POTASSIUM was 5.31 MEQ/L.

What about the SODIUM [2] of the same compound?
The SODIUM was 144.2 MEQ/L.

What about the “TOTAL BILIRUBIN” value [2] of the same compound?
Its value is 0.47 mg/dL.

And the “TOTAL PROTEIN” value [2]?
The value was 5.83 G/DL.

And the “URIC ACID” value [2]?
Its value is 1.07 mg/dL.

What about the “ABSOLUTE BASOPHIL” value [3] of the same compound?
Its value is 0 CELLS/uL.

What about the “ABSOLUTE EOSINOPHIL” value [3] of the same compound?
Its value is 11.33 CELLS/uL.

What about the “ABSOLUTE LYMPHOCYTE” value [3] of the same compound?
Its value is 4520 CELLS/uL.

And the “ABSOLUTE MONOCYTE” value [3]?
The value was 22.67 CELLS/uL.

And the “ABSOLUTE SEGMENTED NEUTROPHIL” value [3]?
The value was 46 CELLS/uL.

And the BASOPHIL [3]?
The BASOPHIL was 0%.

What about the EOSINOPHIL [3] of the same compound?
The EOSINOPHIL was 0.33%.

And the “ERYTHROCYTE COUNT” value [3]?
Its value is 5.7 x10E6/uL.

And the HEMATOCRIT [3]?
Its HEMATOCRIT is 34.73%.

And the HEMOGLOBIN [3]?
Its HEMOGLOBIN is 13.5 G/DL.

What about the “LEUKOCYTE COUNT” value [3] of the same compound?
Its value is 4.6 x10E3/uL.

And the LYMPHOCYTE [3]?
Its LYMPHOCYTE is 98%.

And the “MEAN CORPUSCULAR HEMOGLOBIN” value [3]?
The value was 23.7 pg.

And the “MEAN CORPUSCULAR HEMOGLOBIN CONCENTRATION” value [3]?
Its value is 38.87 G/DL.

What about the “MEAN CORPUSCULAR VOLUME” value [3] of the same compound?
Its value is 61.03 fL.

And the MONOCYTE [3]?
Its MONOCYTE is 0.67%.

What about the NEUTROPHIL [3] of the same compound?
Its NEUTROPHIL is 1%.

What about the “NUCLEATED RED BLOOD CELLS” value [3] of the same compound?
Its value is 0.33 /100WBC.

And the “PLATELET COUNT” value [3]?
The value was 95.67 x10E3/uL.

What about the “ALANINE AMINOTRANSFERASE” value [3] of the same compound?
The value was 423.33 u/L.

What about the ALBUMIN [3] of the same compound?
The ALBUMIN was 3.6 G/DL.

And the “ALKALINE PHOSPHATASE” value [3]?
Its value is 438.67 u/L.

What about the “ASPARTATE AMINOTRANSFERASE” value [3] of the same compound?
Its value is 923 u/L.

And the “BLOOD UREA NITROGEN” value [3]?
The value was 14.67 mg/dL.

What about the “CARBON DIOXIDE” value [3] of the same compound?
Its value is 33 mmol/L.

What about the CHLORIDE [3] of the same compound?
Its CHLORIDE is 96 MEQ/L.

What about the CHOLESTEROL [3] of the same compound?
The CHOLESTEROL was 192.33 mg/dL.

What about the “CREATINE PHOSPHOKINASE” value [3] of the same compound?
Its value is 622.67 u/L.

What about the CREATININE [3] of the same compound?
Its CREATININE is 0.1 mg/dL.

What about the GLUCOSE [3] of the same compound?
The GLUCOSE was 121 mg/dL.

What about the “LACTATE DEHYDROGENASE” value [3] of the same compound?
Its value is 415 u/L.

What about the LIPASE [3] of the same compound?
The LIPASE was 10.67 u/L.

What about the PHOSPHORUS [3] of the same compound?
The PHOSPHORUS was 10.6 mg/dL.

What about the POTASSIUM [3] of the same compound?
Its POTASSIUM is 5.16 MEQ/L.

What about the SODIUM [3] of the same compound?
The SODIUM was 141.4 MEQ/L.

And the “TOTAL BILIRUBIN” value [3]?
The value was 5.67 mg/dL.

And the “TOTAL PROTEIN” value [3]?
The value was 5.83 G/DL.

What about the “URIC ACID” value [3] of the same compound?
Its value is 0.7 mg/dL.
